Source: patent US20240217968A1, “PHARMACEUTICAL COMPOUND” (DUKE STREET BIO LIMITED, priority 2021, published 2024)

Molecular target: T1, recombinant human Flag-tagged PARP7 (amino acids 456-657) (Homo sapiens, UniProt Q7Z3E1)
T1 construct: recombinant human Flag-tagged PARP7 (amino acids 456-657)
T1 sequence (Q7Z3E1 456-657): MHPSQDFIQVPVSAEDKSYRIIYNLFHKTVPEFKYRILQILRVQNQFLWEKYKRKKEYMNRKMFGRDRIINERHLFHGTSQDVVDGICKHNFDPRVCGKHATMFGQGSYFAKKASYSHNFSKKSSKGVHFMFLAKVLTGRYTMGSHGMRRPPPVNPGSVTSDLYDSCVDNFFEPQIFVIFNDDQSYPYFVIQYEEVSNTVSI
Experiment: PARP7 biochemical DELFIA assay (auto-MARylation)
Details: DELFIA readout, IC50 class
In short: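 Readout is DELFIA time-resolved Eu fluorescence (Ex337 nm, Em620 nm) of biotin-ADP-ribose on immobilised Flag-tagged PARP7 456-657. Enzyme (12.5-37.5 nM as added) sat 30 min with compound before biotin-NAD+ (15 μM solution, pH 7.5 HEPES buffer) started 2-3 h room-temperature self-modification, stopped with excess NAD+.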

Q: `CC(CCOCC(=O)N1CCN(c2ccc(C#N)cn2)CC1)n1nc(C(F)(F)F)c2c(=O)[nH]ncc21` (single isomer, unassigned) [Compound 467] was tested. Which IC50 did it give?
A: ≤ 100 nM

Q: For `CC(COCCC(=O)N1CCN(c2ncc(F)cn2)CC1)n1cc(C(F)(F)F)c2c(=O)[nH]ncc21` (single isomer, unassigned) [Compound 468], which IC50 is on record?
A: ≤ 100 nM

Q: With `CC(COCCC(=O)N1CCN(c2ncc(F)cn2)CC1)n1cc(C(F)(F)F)c2c(=O)[nH]ncc21` (single isomer, unassigned) [Compound 469] as the molecule, how does the IC50 read?
A: ≤ 100 nM

Q: For `CC(COCCC(=O)N1CCN(c2nnc(C(F)(F)F)o2)CC1)n1nc(C(F)(F)F)c2c(=O)[nH]ncc21` (single isomer, unassigned) [Compound 472], which IC50 is on record?
A: ≤ 100 nM

Q: With `CC(COCCC(=O)N1CCN(c2nnc(C(F)(F)F)o2)CC1)n1nc(C(F)(F)F)c2c(=O)[nH]ncc21` (single isomer, unassigned) [Compound 473] as the molecule, how does the IC50 read?
A: 100 to 1000 nM

Q: How did the IC50 turn out when `[2H]C(C)(COCCC(=O)N1CCN(c2ncc(C(F)(F)F)cn2)CC1)n1cc(C(F)(F)F)c2c(=O)[nH]ncc21` (single isomer, unassigned) [Compound 476, 1-(1-(3-oxo-3-(4-(5-(trifluoromethyl)pyrimidin-2-yl)piperazin-1-yl)propoxy)propan-2-yl-2-d)-3-(trifluoromethyl)-1,5-dihydro-4H-pyrrolo[2,3-d]pyridazin-4-one] was run?
A: ≤ 100 nM

Q: `[2H]C(C)(COCCC(=O)N1CCN(c2ncc(C(F)(F)F)cn2)CC1)n1cc(C(F)(F)F)c2c(=O)[nH]ncc21` (single isomer, unassigned) [Compound 477, 1-(1-(3-oxo-3-(4-(5-(trifluoromethyl)pyrimidin-2-yl)piperazin-1-yl)propoxy)propan-2-yl-2-d)-3-(trifluoromethyl)-1,5-dihydro-4H-pyrrolo[2,3-d]pyridazin-4-one] was tested. Which IC50 did it give?
A: ≤ 100 nM

Q: For `CC(COCC(=O)NC1CCN(c2ncc(C(F)(F)F)cn2)CC1)n1nc(C(F)(F)F)c2c(=O)[nH]ncc21` (single isomer, unassigned) [Compound 479, 2-(2-(4-oxo-3-(trifluoromethyl)-4,5-dihydro-1H-pyrazolo[3,4-d]pyridazin-1-yl)propoxy)-N-(1-(5-(trifluoromethyl)pyrimidin-2-yl)piperidin-4-yl) acetamide], which IC50 is on record?
A: ≤ 100 nM

Q: With `CC(COCC(=O)NC1CCN(c2ncc(C(F)(F)F)cn2)CC1)n1nc(C(F)(F)F)c2c(=O)[nH]ncc21` (single isomer, unassigned) [Compound 480, 2-(2-(4-oxo-3-(trifluoromethyl)-4,5-dihydro-1H-pyrazolo[3,4-d]pyridazin-1-yl)propoxy)-N-(1-(5-(trifluoromethyl)pyrimidin-2-yl)piperidin-4-yl) acetamide] as the molecule, how does the IC50 read?
A: ≤ 100 nM

Q: For `CC(COCCC(=O)N1CCN(c2ncc(C(C)(F)F)cn2)CC1)n1cc(C(F)(F)F)c2c(=O)[nH]ncc21` (single isomer, unassigned) [Compound 482], which IC50 is on record?
A: ≤ 100 nM

Q: With `CC(COCCC(=O)N1CCN(c2ccc(C(C)(F)F)cn2)CC1)n1cc(C(F)(F)F)c2c(=O)[nH]ncc21` (single isomer, unassigned) [Compound 484] as the molecule, how does the IC50 read?
A: ≤ 100 nM

Q: With `CC(COCCC(=O)N1CCN(c2ncc(C(C)(F)F)cn2)CC1)n1nc(C(F)(F)F)c2c(=O)[nH]ncc21` (single isomer, unassigned) [Compound 485] as the molecule, how does the IC50 read?
A: ≤ 100 nM

Q: Which IC50 does the source give for `CC(COCCC(=O)N1CCN(c2ncc(C(C)(F)F)cn2)CC1)n1nc(C(F)(F)F)c2c(=O)[nH]ncc21` (single isomer, unassigned) [Compound 486] here?
A: ≤ 100 nM

Q: How did the IC50 turn out when `CC(COCCC(=O)N1CCN(c2ncc(C#N)cn2)CC1)n1nc(C(F)F)c2c(=O)[nH]ncc21` (single isomer, unassigned) [Compound 490] was run?
A: ≤ 100 nM

Q: `CC(COCCC(=O)N1CCN(c2ncc(C#N)cn2)CC1)n1nc(C(F)F)c2c(=O)[nH]ncc21` (single isomer, unassigned) [Compound 491] was tested. Which IC50 did it give?
A: ≤ 100 nM

Q: How did the IC50 turn out when `CC(CCOCC(=O)N1CCN(c2ccc(C#N)cn2)CC1)n1cc(C(F)(F)F)c2c(=O)[nH]ncc21` (single isomer, unassigned) [Compound 494] was run?
A: ≤ 100 nM

Q: How did the IC50 turn out when `CC(CCOCC(=O)N1CCN(c2ccc(C#N)cn2)CC1)n1cc(C(F)(F)F)c2c(=O)[nH]ncc21` (single isomer, unassigned) [Compound 495] was run?
A: 100 to 1000 nM

Q: How did the IC50 turn out when `CC(CCOCC(=O)N1CCN(c2ncc(C#N)cn2)CC1)n1nc(C(F)(F)F)c2c(=O)[nH]ncc21` (single isomer, unassigned) [Compound 496] was run?
A: ≤ 100 nM

Q: With `CC(CCOCC(=O)N1CCN(c2ncc(C#N)cn2)CC1)n1nc(C(F)(F)F)c2c(=O)[nH]ncc21` (single isomer, unassigned) [Compound 497] as the molecule, how does the IC50 read?
A: ≤ 100 nM

Q: How did the IC50 turn out when `CC(COCCC(=O)N1CCN(c2ncc(C(C)(C)C)cn2)CC1)n1cc(C(F)(F)F)c2c(=O)[nH]ncc21` (single isomer, unassigned) [Compound 498] was run?
A: ≤ 100 nM

Q: Which IC50 does the source give for `CC(COCCC(=O)N1CCN(c2ncc(C(C)(C)C)cn2)CC1)n1cc(C(F)(F)F)c2c(=O)[nH]ncc21` (single isomer, unassigned) [Compound 499] here?
A: ≤ 100 nM

Q: `CC(COCCC(=O)N1CCN(c2ncc(C(C)(C)C)cn2)CC1)n1nc(C(F)(F)F)c2c(=O)[nH]ncc21` (single isomer, unassigned) [Compound 500] was tested. Which IC50 did it give?
A: ≤ 100 nM

Q: With `CC(COCCC(=O)N1CCN(c2ncc(C(C)(C)C)cn2)CC1)n1nc(C(F)(F)F)c2c(=O)[nH]ncc21` (single isomer, unassigned) [Compound 501] as the molecule, how does the IC50 read?
A: ≤ 100 nM

Q: With `N#Cc1ccc(N2CCN(C(=O)c3cccc(Cc4cccc5c(=O)[nH]ncc45)c3)CC2)nc1` [Compound 1, 6-(4-(3-((1-oxo-1,2-dihydrophthalazin-5-yl)methyl)benzoyl)piperazin-1-yl)nicotinonitrile] as the molecule, how does the IC50 read?
A: ≤ 100 nM

Q: For `O=C(c1cccc(Cc2cccc3c(=O)[nH]ncc23)c1)N1CCN(C(=O)C2CC2)CC1` [Compound 2], which IC50 is on record?
A: 1000 to 10000 nM

Q: `O=C(COCCOc1cccc2c(=O)[nH]ncc12)N1CCN(c2ncc(C(F)(F)F)cn2)CC1` [Compound 3] was tested. Which IC50 did it give?
A: 100 to 1000 nM

Q: Which IC50 does the source give for `O=C(CCOCCc1cccc2c(=O)[nH]ncc12)N1CCN(c2ncc(C(F)(F)F)cn2)CC1` [Compound 4] here?
A: ≤ 100 nM

Q: For `N#Cc1ccc(N2CCN(C(=O)c3cccc(CN4CCc5c4cn[nH]c5=O)c3)CC2)nc1` [Compound 5], which IC50 is on record?
A: 1000 to 10000 nM

Q: Which IC50 does the source give for `O=C(CCOCCN1CCc2c1cn[nH]c2=O)N1CCN(c2ncc(C(F)(F)F)cn2)CC1` [Compound 6] here?
A: 100 to 1000 nM

Q: With `N#Cc1ccc(N2CCN(C(=O)c3cccc(CN4CCCc5c4cn[nH]c5=O)c3)CC2)nc1` [Compound 7] as the molecule, how does the IC50 read?
A: 100 to 1000 nM

Q: For `O=C(CCOCCN1CCCc2c1cn[nH]c2=O)N1CCN(c2ncc(C(F)(F)F)cn2)CC1` [Compound 8], which IC50 is on record?
A: ≤ 100 nM

Q: How did the IC50 turn out when `N#Cc1ccc(N2CCN(C(=O)c3cccc(Cn4ccc5c(=O)[nH]ncc54)c3)CC2)nc1` [Compound 9] was run?
A: 100 to 1000 nM

Q: For `O=C(CCOCCn1ccc2c(=O)[nH]ncc21)N1CCN(c2ncc(C(F)(F)F)cn2)CC1` [Compound 10, 1-(2-(3-oxo-3-(4-(5-(trifluoromethyl)pyrimidin-2-yl)piperazin-1-yl)propoxy)ethyl)-1,5-dihydro-4H-pyrrolo[2,3-d]pyridazin-4-one], which IC50 is on record?
A: ≤ 100 nM

Q: Which IC50 does the source give for `N#Cc1ccc(N2CCN(C(=O)c3cccc(CN4CCOc5c4cn[nH]c5=O)c3)CC2)nc1` [Compound 11] here?
A: 1000 to 10000 nM

Q: `O=C(CCOCCN1CCOc2c1cn[nH]c2=O)N1CCN(c2ncc(C(F)(F)F)cn2)CC1` [Compound 12] was tested. Which IC50 did it give?
A: 100 to 1000 nM

Q: With `O=C(COCCOc1cccc2c(=O)[nH]cnc12)N1CCN(c2ncc(C(F)(F)F)cn2)CC1` [Compound 15] as the molecule, how does the IC50 read?
A: 100 to 1000 nM

Q: Which IC50 does the source give for `O=C(CCOCCc1cccc2c(=O)[nH]cnc12)N1CCN(c2ncc(C(F)(F)F)cn2)CC1` [Compound 16] here?
A: 100 to 1000 nM

Q: For `O=C(COCCNc1cccc2c(=O)[nH]cnc12)N1CCN(c2ncc(C(F)(F)F)cn2)CC1` [Compound 17], which IC50 is on record?
A: 1000 to 10000 nM

Q: `N#Cc1ccc(N2CCN(C(=O)c3cccc(Cc4cccc5c(=O)[nH]c(=O)[nH]c45)c3)CC2)nc1` [Compound 18] was tested. Which IC50 did it give?
A: 100 to 1000 nM

Q: `O=C(c1cccc(Cc2cccc3c(=O)[nH]c(=O)[nH]c23)c1)N1CCN(C(=O)C2CC2)CC1` [Compound 19] was tested. Which IC50 did it give?
A: 1000 to 10000 nM

Q: For `N#Cc1ccc(N2CCN(C(=O)c3cccc(Cc4cccc5c4CCNC5=O)c3)CC2)nc1` [Compound 20], which IC50 is on record?
A: 100 to 1000 nM

Q: How did the IC50 turn out when `O=C1NCCc2c(Cc3cccc(C(=O)N4CCN(C(=O)C5CC5)CC4)c3)cccc21` [Compound 21] was run?
A: 1000 to 10000 nM

Q: `O=C1NCCc2c(OCCOCC(=O)N3CCN(c4ncc(C(F)(F)F)cn4)CC3)cccc21` [Compound 22] was tested. Which IC50 did it give?
A: 1000 to 10000 nM

Q: With `O=C1NCCc2c(CCOCCC(=O)N3CCN(c4ncc(C(F)(F)F)cn4)CC3)cccc21` [Compound 23] as the molecule, how does the IC50 read?
A: 100 to 1000 nM

Q: `N#Cc1ccc(N2CCN(C(=O)c3cccc(Cn4ncc5c(=O)[nH]ncc54)c3)CC2)nc1` [Compound 24] was tested. Which IC50 did it give?
A: 100 to 1000 nM

Q: Which IC50 does the source give for `O=C(c1cccc(Cc2cccc3c(=O)[nH]ncc23)c1)N1CCN(c2ncc(C(F)(F)F)cn2)CC1` [Compound 25] here?
A: ≤ 100 nM

Q: `N#Cc1ccc(N2CCN(C(=O)c3cccc(Cc4cccc5c(=O)[nH]ncc45)c3)CC2)cc1` [Compound 26] was tested. Which IC50 did it give?
A: 1000 to 10000 nM

Q: `O=C(c1cccc(Cc2cccc3c(=O)[nH]ncc23)c1)N1CCN(c2ccccc2)CC1` [Compound 27] was tested. Which IC50 did it give?
A: 1000 to 10000 nM

Q: With `N#Cc1ccc(N2CCCN(C(=O)c3cccc(Cc4cccc5c(=O)[nH]ncc45)c3)CC2)nc1` [Compound 28] as the molecule, how does the IC50 read?
A: 100 to 1000 nM

Q: With `N#Cc1ccc(N2CCN(C(=O)c3cccc(Oc4cccc5c(=O)[nH]ncc45)c3)CC2)nc1` [Compound 29] as the molecule, how does the IC50 read?
A: 100 to 1000 nM

Q: `N#Cc1ccc(N2CCN(C(=O)c3cccc(Nc4cccc5c(=O)[nH]ncc45)c3)CC2)nc1` [Compound 30] was tested. Which IC50 did it give?
A: ≤ 100 nM

Q: `N#Cc1ccc(N2CCN(C(=O)c3ccc(Cc4cccc5c(=O)[nH]ncc45)cc3)CC2)nc1` [Compound 32] was tested. Which IC50 did it give?
A: 1000 to 10000 nM
